The source of these data is patent publication US8962692B2, “Cysteine and cystine prodrugs to treat schizophrenia and reduce drug cravings” (Marquette University, priority 2008, dated 2015).

Molecules are shown by their SMILES.

In general, melting point refers to the temperature, or range, at which the solid turns liquid.

Series [1] deals with PCP-induced deficits in sensorimotor gating. The series is described as follows: Prepulse inhibition of startle response; reversal of PCP-induced deficits in sensorimotor gating. The conditions noted are these: for inhibition of startle response (prepulse inhibition): difference relative to rats receiving PCP alone and/or N-acetylcysteine 30 mg/kg: compound pretreatment 60 min, prepulse 2-15 dB above background, Fisher LSD p<0.05.

The test system of series [2] is cocaine-induced reinstatement. Description: Extinction/reinstatement paradigm: cocaine-induced reinstatement of lever pressing. Format: in vivo. The conditions noted are these: rats, cocaine 10 mg/kg IP.
Another series relates to cocaine use and craving. The conditions noted are these: cocaine abusers receiving NAC, clinical data; cited from earlier work.
The next series concerns compulsive drug-seeking. The conditions noted are these: rodents, preclinical studies; cited from earlier work.
The conditions of series [3]: human subjects; cited from earlier work.
Where [4] appears, read: rats, phencyclidine 1.25 mg/kg SC.

`O=C1CNC(=O)[C@@H](CSC(c2ccccc2)(c2ccccc2)c2ccccc2)N1` (stereo in doubt) [Compound 3c-a, 3-Tritylsulfanylmethyl-piperazine-2,5-dione] had a melting point of 225 to 227 °C.

`O=C1N[C@@H](CSSc2ccccc2)C(=O)N2CCC[C@H]12` [Compound 3b-c, (3R,8aR)-3-((phenyldisulfanyl)methyl)hexahydropyrrolo[1,2-a]pyrazine-1,4-dione] had a melting point of 120 °C.

As to `O=C1CNC(=O)[C@H](CS)N1` [Compound 4a, 2,5-piperazinedione, 3-(mercaptomethyl)-], the melting point is 258 °C. In series [1] (setting [4]), the “inhibition of startle response (prepulse inhibition): difference relative to rats receiving PCP alone and/or N-acetylcysteine 30 mg/kg” value is listed as “significant difference”.

With `CC(C)[C@H]1NC(=O)[C@H](CS)NC1=O` [Compound 4d, (6R)-3-isopropyl-6-(mercaptomethyl)piperazine-2,5-dione], the melting point is more than 275 °C.

As to `CC(C)(C)SC[C@H]1NC(=O)[C@H](CS)NC1=O` [Compound 4e, (6R)-3-(tert-butylthiomethyl)-6-(mercaptomethyl)piperazine-2,5-dione], the melting point is > 280 °C (dec.).

Take `CCOC1=N[C@@H](CS)C(OCC)=NC1` [Compound 5a, (3,6-Diethoxy-2,5-dihydro-,pyrazin-2-yl)-methanethiol]: the “inhibition of startle response (prepulse inhibition): difference relative to rats receiving PCP alone and/or N-acetylcysteine 30 mg/kg” value in series [1] (setting [4]) was “significant difference”.

`CCOC1=N[C@@H](CSSC[C@H]2N=C(OCC)CN=C2OCC)C(OCC)=NC1` [Compound 5a-D, Bis[(3,6-Diethoxy-2,5-dihy-dro-pyrazin-2-yl)-methanethiol]]: the cocaine-induced reinstatement result in series [2] (1 mg/kg (p.o.), comparable to 30 mg/kg NAC) was “sufficient to block cocaine-induced reinstatement”. Further, in series [1] (setting [4]), the “inhibition of startle response (prepulse inhibition): difference relative to rats receiving PCP alone and/or N-acetylcysteine 30 mg/kg” value is recorded as “significant difference”.

Consider `CCOC1=N[C@@H](CSCC)C(=O)N[C@@H]1Cc1ccccc1` [Compound 6b-b, (3R,6R)-6-Benzyl-5-ethoxy-3-(ethylthiomethyl)-1,6-dihydropyrazin-2(3H)-one], for which the melting point was found to be 118 °C.

On to `O=C1CNC(=O)[C@H](CSSC[C@@H]2NC(=O)CNC2=O)N1` [Compound 7a, Bis[2,5-Piperazinedione, 3-(mercaptomethyl)-]], for which, in series [1] (setting [4]), the “inhibition of startle response (prepulse inhibition): difference relative to rats receiving PCP alone and/or N-acetylcysteine 30 mg/kg” value was “significant difference”.

With `O=C1CNC(=O)[C@H](CSSC[C@H]2NC(=O)[C@H](Cc3ccccc3)NC2=O)N1` [Compound 11-a-b], the “inhibition of startle response (prepulse inhibition): difference relative to rats receiving PCP alone and/or N-acetylcysteine 30 mg/kg” value in series [1] (setting [4]) was “significant difference”.

For the compound `CC(C)C1NC(=O)[C@@H](CSSC[C@@H]2NC(=O)CNC2=O)NC1=O` (stereo partly shown) [Compound 11-a-d], the “inhibition of startle response (prepulse inhibition): difference relative to rats receiving PCP alone and/or N-acetylcysteine 30 mg/kg” value in series [1] (setting [4]) is given as “significant difference”.

Consider `CC(=O)N[C@@H](CS)C(=O)O` [N-acetyl cysteine], for which the “cocaine use and craving” value in the series on cocaine use and craving was “reduction in cocaine use and craving”. Besides, the cocaine-induced reinstatement entry in series [2] (30 mg/kg IP, responding 120 min) was “significant reduction”; in series [2] (60 mg/kg IP, responding 120 min) it was “significant reduction”; in series [2] (given orally), “less effective”. Further, in the series with compulsive drug-seeking, the compulsive drug-seeking entry is “effective in blocking compulsive drug-seeking”. In addition, the “phencyclidine-induced deficits in sensorimotor gating” value in series [1] (direct delivery into the brain (prefrontal cortex)) was “reverses phencyclidine-induced deficits in sensorimotor gating”. Also, the “sensorimotor gating (prepulse inhibition) after PCP” value in series [1] (rats, N-acetyl cysteine 30 mg/kg po, pretreated 60 min, phencyclidine 1.25 mg/kg SC) is given as “failed to exhibit sensorimotor gating”. Further, the safety/tolerability profile entry in series [3] is reported as “favorable safety/tolerability profile”.

For `c1ccc(C2(N3CCCCC3)CCCCC2)cc1` [PCP, phencyclidine, reference compound], in series [1] (rats, pcp 0-2.0 mg/kg, FIG. 4), the “effect of PCP on prepulse inhibition” value is listed as “disrupt prepulse inhibition”.
